Source: patent US20230381163A1, “DABIGATRAN COMPOSITIONS AND METHODS OF TREATING AGE-RELATED MACULAR DEGENERATION” (The United States Government As Represented By The …, priority 2022, published 2023)

What was measured:
thrombin [1] = biological target: thrombin (Homo sapiens, UniProt P00734); assay: Thrombin activity in cell-free system; settings: 10 μM, thrombin 10-500 U/mL
Procedure: Thrombin activity in cell-free system. To measure the level of active thrombin in cell-free system, known concentrations of thrombin were prepared in 100 μl of assay buffer (50 mM Tris, 100 mM NaCl, and 0.01% BSA; pH 7.5), subsequently 50 μl of thrombin substrate was added and incubated at 37° C. Fluorescence was measured at 405 nm using the Biotek Synergy HT Microplate Reader and thrombin activity was determined by extrapolation from a thrombin standard curve. Effects of inhibitors were tested by pre-incubating the inhibitors with thrombin, before substrate incorporation.

complement component C3 = assay: Thrombin-mediated C3 cleavage in apical supernatants of ARPE-19 cells (western blot); type: cell-based, human; settings: 10 μM
Procedure: Second, it was tested whether thrombin can cleave complement components (Huber-Lang, M., et al. (2006). Nat Med 12, 682-687; and Krisinger, M. J., et al. (2012). Blood 120, 1717-1725), specifically C3 and C5, producing cleavage products potentially different from those produced by classical convertases. To test the effects of thrombin on complement cleavage, the apical supernatants of treated ARPE-19 cell monolayers were analyzed by western blotting. Cleavage of C3α was evaluated using an antibody specific for C3a (FIG. 5A, left-hand blot). The C3a antibody detected C3, the C3α band as well as other fragments containing C3a. Thrombin caused a concentration dependent cleavage of complement component C3 (˜190 kDa), caused reduction of the 120 kDa C3a band and generation of a new 80 kDa fragment. Fragments at 32 kDa and 9-10 kDa with higher doses of thrombin treatment (FIG. 5A, 10 U/mL) were also observed. The 9-10 kDa band ran at the same molecular weight as purified C3a (FIG. 11). The reduction of the 120 kDa fragment was correlated with the generation of the 80 kDa fragment (FIG. 5B). The loss of the 120 kDa fragment was prevented by either dabigatran (10 μM) or the C3 inhibitor compstatin (100 μM), which inhibits complement both on cell membranes as well as in fluid phase, but not by TT30 (10 μM), which is an inhibitor that prevents membrane-bound AP activation (FIG. 5C). […]

CTGF = CTGF levels in RPE/choroid of CNV mice (western blot); type: in vivo, mouse; settings: end of repair period (23 days), P<0.01
From the text: (§1) Pathway analysis in CNV. Based on the results in cells, an analysis in animals followed, focusing on VEGF levels in the RPE/choroid, complemented by CTGF analysis and complement activation (C3d production and binding). RPE/choroid samples were collected at the end of the angiogenesis experiment (day 6) and after the final OCT analysis in the repair experiment (day 23) and compared to naive controls (no CNV and no dabigatran treatment).

thrombin [2] = biological target: thrombin (Mus musculus, UniProt P19221)
Procedure: Thrombin activity assay. Thrombin activity was measured according to a methodology described by Ludwicka with modifications (Ohba, T., et al. (1994). Am J Respir Cell Mol Biol 10, 405-412). Thrombin specific peptide Boc-Val-Pro-Arg-7-amido-4-methylcoumarin hydrochloride (Sigma-Aldrich) was reconstituted in molecular grade ice-cold H2O at a concentration of 0.5 mg/ml and used as substrate.
It was test whether dabigatran would alter the course of angiogenesis or repair, by feeding animals with dabigatran chow during the two different phases.

VEGF = VEGF levels in RPE/choroid of CNV mice (western blot); type: in vivo, mouse
From the text: as §1

[3] = dabigatran chow, ˜10 mg/kg bodyweight per day; cited from earlier work
[4] = tested on: C3α breakdown products C3d/C3dg and C3α′1; assay: Complement activation (C3d) in RPE/choroid of CNV mice (western blot); type: in vivo, mouse
From the text: as §1
Unexpectedly, and in contrast to the cell data (FIG. 4), C3d deposition was not reduced by dabigatran.

[5] = tested on: VEGF secretion in ARPE-19 cells; assay: VEGF secretion into apical supernatant of ARPE-19 monolayers (ELISA); type: cell-based, human; settings: dabigatran, thrombin-treated cells
Procedure: Cell culture experiments: Cells. […] Frontiers in Aging Neuroscience 9).
VEGF ELISA. VEGF in the supernatant was measured using the Quantikine® Human VEGF Immunoassay (R & D System) according to the manufacturer's protocol. In brief, 200 μl of standard/sample was mixed with 50 μl of assay diluent and added to the plate precoated with the capture antibody. After washing, 200 μl of the VEGF detection antibody (polyclonal antibody specific for human VEGF conjugated to horseradish peroxidase) was added, followed by freshly prepared substrate reagents (stabilized hydrogen peroxide and tetramethylbenzidine). The reaction was terminated using 50 μl of stop solution and absorbance was measured at λ1 450 nm with wavelength correction λ2 at 540 nm. VEGF concentration of samples were calculated comparing the absorbance with the standards and converted into fold change considering the serum-free condition as 1 in the scale.

Structure (SMILES): CCCCCCOC(=O)NC(=N)c1ccc(NCc2nc3cc(C(=O)N(CCC(=O)OCC)c4ccccn4)ccc3n2C)cc1
- effect on thrombin enzyme activity (thrombin [1]): significantly reduce
- effect on thrombin-mediated loss of the 120 kDa C3 fragment (complement component C3): prevented
- effect on CTGF levels in RPE/choroid (CTGF): significantly reduced
- reduction of thrombin activity in retina/RPE/choroid tissues (thrombin [2]; mice on dabigatran chow vs control mice, P=0.04): ~10%
- reduction of thrombin activity in serum (thrombin [2]; mice on dabigatran chow ˜10 mg/kg per day vs control mice, P=0.003): ~35%
- thrombin activity in retina/RPE/choroid tissues (thrombin [2]; mice on dabigatran chow, control: 100±3.1): 91.1±2.6
- thrombin activity in serum (thrombin [2]; mice on dabigatran chow, control: 100±7.6): 65.4±5.1
- effect on VEGF levels in RPE/choroid (VEGF; 6-day time point, angiogenesis phase, P=0.9): no effect
- effect on VEGF levels in RPE/choroid (VEGF; 23-day time point, repair phase, P=0.001): significantly reduced
- blood plasma concentration of dabigatran [3]: 372 ± 30 ng/mL
- elongation of coagulation times [3]: 3 fold
- effect on C3d deposition ([4]; CNV animals, repair phase): not reduced
- effect on C3d/C3dg and C3α′1 levels in RPE/choroid ([4]; end of repair period (23 days), P<0.05): further elevated
- reduction of thrombin-induced VEGF content [5]: ~35%
